In a melting point compilation (Tetko et al.; mined from patent text by program, amines drawn as free bases though some values may be those of a salt):

SMILES | melting point [°C]
COC(=O)N(C)C1CN(C(=O)Nc2ccc(OC(F)(F)F)cc2)N=C1c1ccc(OC(F)F)cc1 (stereo unspecified) | 125 to 126
C#CCCCCCCCCCCCCCCCCCCCC(=O)OC(C)(C)C | 44 to 45
CC(=Nc1cc(C(F)(F)F)cc2nc(C)n(C(C)C)c12)c1ccccc1 | 164 to 166
CCOC(=O)C1=C(C)N(C(C)=O)C(c2csc(C)n2)=NC1c1cccc(OC)c1 (stereo unspecified) | 114 to 116
Cc1ccc(C(=O)Nc2ccc(CN3CCOCC3)c(C(F)(F)F)c2)cc1Br | 147 to 151
COc1ccc2[nH]c(C)c(SC)c2c1 | 55 to 56.5
C(=Cc1cnc2[nH]c3ccccc3c2c1)c1ccccc1 | > 220
COC(=O)c1ccccc1SCOc1ccc(Cl)cc1Cl | 122 to 124
CCOC(=O)c1cn([C@@H]2C[C@@H]2F)c2cc(F)ccc2c1=O | 227 to 230
CCOC(=O)c1c(CN2CCCCC2)nc2cc3c(cc2c1-c1ccc(OC)c(OC)c1)OCCO3 | 158 to 160
CC(C#Cc1ccc(C(O)c2cc3ccccc3s2)s1)N(O)C(N)=O (stereo unspecified) | 65 to 70
O=[N+]([O-])c1cnc(Sc2n[nH]c(-c3ccccc3)n2)s1 | 155 to 157
CC(C)(C)OC(=O)c1ccsc1NC(=O)Nc1ccc(Oc2ccccc2)cc1 | 203 to 205
CSc1ccc(Br)cn1 | 39 to 40
CC(=O)OC(C)(C)C(=O)Nc1c(C(=O)c2ccccc2)[nH]c2cc(Cl)ccc12 | 162 to 165
O=C1c2ccccc2C(=O)c2cc(S(=O)(=O)O)ccc21 | 208 to 211
C=C(c1ccc(OC)cc1)c1ccc(N(C)C)cc1 | 124 to 126
C=C(C)CN1CCN(CCC(=O)N2c3ccccc3C(=O)Nc3cccnc32)CC1 | 210 to 211
Cc1ccc(C(=O)Nc2ccc3[nH]cc(C4CCN(C)CC4)c3n2)s1 | 123 to 127
CCNc1nc(S(C)=O)ncc1C(=O)OCC (stereo unspecified) | 54 to 56
COc1ccc(/C=C/c2nc3cc([N+](=O)[O-])ccc3[nH]2)cc1OC | 223 to 225
CCc1sc2c(c1C)c(=O)c1cccc(C(=O)O)c1n2Cc1ccc(-c2ccccc2C#N)cc1 | 203 to 205
O=P(O)(O)C(NCc1ccccc1)c1ccccc1 (stereo unspecified) | 233 to 236
Cc1ccc(S(=O)(=O)Nc2ccc(C(N)=O)cc2C(N)=O)cc1 | 212 to 215
CCOC(=O)c1nn(-c2ccc(Cl)cc2Cl)c(-c2ccc(Cl)cc2)c1C | 124
CCc1nc2cc(C(N)=O)c(Cl)cc2n1-c1ccc(CCNC(=O)NS(=O)(=O)c2ccc(C)cc2)cc1 | 152 to 163

SMILES | melting point [°C]
CCOC(=O)[C@H](Cc1cccc(OS(=O)(=O)C(F)(F)F)c1)NC(=O)C(F)(F)F | 38 to 39
CN(C)CC(=Cc1ccc(/C=C/C(=O)O)cc1)O[Si](C)(C)C(C)(C)C | 207
CCC1(O)CC(=O)OCc2c1ccnc2OC (stereo unspecified) | 97 to 98
Cc1onc(OCC(=O)NCCO[N+](=O)[O-])c1Br | 87 to 88
CC1Cc2cc3c(cc2C(c2ccc([N+](=O)[O-])cc2)=NN1)OCO3 (stereo unspecified) | 162 to 164
C=CCNC(=O)N1CC(Oc2ccccn2)C1 | 72 to 76
COC(=O)CN(C(=O)OC)C1CN(C(=O)Nc2ccc(C(F)(F)F)cc2)N=C1c1ccc(Cl)cc1 (stereo unspecified) | 198 to 200
CC(C)N(CCN1C(=O)C(=O)c2cc(Br)ccc21)C(C)C | 91 to 93
CCCCN(Cc1ccc(-c2ccccc2-c2nnn[nH]2)cc1)c1nnn(CC(C)C)c1C(=O)O | 105 to 106
Cc1c(NC(=O)c2ccc(CC(=O)C(C)C)cc2)ccc2cc(CN3CCCC3)cnc12 | 146 to 147
CN1CCN(C2=Nc3cc(C(F)(F)F)ccc3Nc3cscc32)CC1 | 202
O=[N+]([O-])c1ccc(S(=O)(=O)On2nnc3ccccc32)cc1 | 120 to 122
O=Cc1ccn(-c2c(Cl)cc(C(F)(F)F)cc2Cl)c(=O)c1 | 115 to 117
CCCCC1=NC2(CCCC2)C(=O)N1Cc1ccc(-c2ccccc2S(=O)(=O)Nc2onc(C)c2C)c(COCC)c1 | 74 to 80
COc1cccc(OC(=O)NC2C(=O)N(CCC(C)C)c3cc(Cl)ccc3N(c3ccccc3)C2=O)c1 (stereo unspecified) | 129 to 130
c1csc(-c2ncc(COc3ccc(CCCn4ccnc4)cc3)s2)c1 | 112 to 113
COC(=O)/C=C(/OC)c1cccc2ccc(Br)cc12 | 96 to 97
Nc1ccc(N2CCN(Cc3ccccc3)CC2)cc1CS(=O)(=O)c1ccccc1 | 141 to 143
Cc1nc(N)nc(N)c1C=CC(C)(C)c1ccc(Cl)cc1 | 195 to 200
CCCCC(C(=O)O)c1cccc(C(=O)c2cc3ccsc3s2)c1 (stereo unspecified) | 131
O=C(c1ccc([N+](=O)[O-])cc1)N1CCC(OCc2ccc(F)cc2)CC1 | 120
COc1ccc(-c2ccc(C#N)cn2)cc1C=O | 197 to 198
Cc1[nH]c2ccccc2c1CCN1CCN(C(c2ccc(F)cc2)c2ccc(F)cc2)CC1 | 65 to 73
CSc1nc(-c2ccncc2)n(-c2ccc(F)cc2)c(=O)c1C#N | 301 to 303
O=C1C2CCN(CC2)C1CN1CCCCC1 (stereo unspecified) | 34 to 37
